Assay results as given in ChEMBL document CHEMBL1201862, “PubChem BioAssay data set” (2004).
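A five-concentration, 48-hour dose response in 96-well plates underlies each endpoint, interpolated linearly between surrounding concentrations. GI50 is the concentration that inhibits growth by half.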 The source made the active and inactive calls. Cut-off read from the data, not from the text of the source: active = GI50 up to about 1.1 µM and inactive = higher.

Assays:
Assay in all cases: NCI-60 cell line screen, 48 h
SW-620 = tested on: SW-620
NCI-H226 = tested on: NCI-H226
SNB-75 = tested on: SNB-75
IGROV-1 = tested on: IGROV-1
LOX IMVI = tested on: LOX IMVI
SK-MEL-28 = tested on: SK-MEL-28
UACC-62 = tested on: UACC-62
KM-20L2 = tested on: KM-20L2
HCC 2998 = tested on: HCC 2998
DLD-1 = tested on: DLD-1
SK-MEL-2 = tested on: SK-MEL-2
NCI-H522 = tested on: NCI-H522
SF-295 = tested on: SF-295
786-0 = tested on: 786-0
ACHN = tested on: ACHN
DMS-114 = tested on: DMS-114
NCI-H23 = tested on: NCI-H23
OVCAR-4 = tested on: OVCAR-4
OVCAR-5 = tested on: OVCAR-5
CAKI-1 = tested on: CAKI-1
HCT-116 = tested on: HCT-116
COLO 205 = tested on: COLO 205
CCRF-CEM = tested on: CCRF-CEM
A498 = tested on: A498
SN12C = tested on: SN12C
SK-MEL-5 = tested on: SK-MEL-5
SNB-19 = tested on: SNB-19
Malme-3M = tested on: Malme-3M
KM12 = tested on: KM12
UO-31 = tested on: UO-31
HOP-92 = tested on: HOP-92
A549 = tested on: A549
MOLT-4 = tested on: MOLT-4
HOP-62 = tested on: HOP-62
RXF 393 = tested on: RXF 393
SK-OV-3 = tested on: SK-OV-3
SF-268 = tested on: SF-268
NCI-H460 = tested on: NCI-H460
HL-60 = tested on: HL-60
LXFL 529 = tested on: LXFL 529
TK-10 = tested on: TK-10
U-251 = tested on: U-251
M19-MEL = tested on: M19-MEL
DMS-273 = tested on: DMS-273
OVCAR-3 = tested on: OVCAR-3
K562 = tested on: K562
M14 = tested on: M14
RPMI-8226 = tested on: RPMI-8226
HCT-15 = tested on: HCT-15
SF-539 = tested on: SF-539
SNB-78 = tested on: SNB-78
UACC-257 = tested on: UACC-257
HT-29 = tested on: HT-29
EKVX = tested on: EKVX
XF498 = tested on: XF498
HOP-18 = tested on: HOP-18
OVCAR-8 = tested on: OVCAR-8

Measured: GI50

O=C(CC1=Nc2nnc(-c3nnc4n3C(=O)C(CC(=O)C3CC3)=N4)n2C1=O)C1CC1
> 100 µM: HCT-15
inactive: SW-620 > 100 µM | NCI-H226 > 100 µM | SNB-75 > 100 µM | IGROV-1 > 100 µM | LOX IMVI > 100 µM | SK-MEL-28 > 100 µM | UACC-62 > 100 µM | KM-20L2 > 100 µM | HCC 2998 > 100 µM | DLD-1 > 100 µM | SK-MEL-2 > 100 µM | NCI-H522 > 100 µM | SF-295 > 100 µM | 786-0 > 100 µM | ACHN > 100 µM | DMS-114 > 100 µM | NCI-H23 > 100 µM | OVCAR-4 > 100 µM | OVCAR-5 > 100 µM | CAKI-1 > 100 µM | HCT-116 > 100 µM | COLO 205 > 100 µM | CCRF-CEM > 100 µM | A498 > 100 µM | SN12C > 100 µM | SK-MEL-5 > 100 µM | SNB-19 > 100 µM | Malme-3M > 100 µM | KM12 > 100 µM | UO-31 > 100 µM | HOP-92 > 100 µM | A549 > 100 µM | MOLT-4 > 100 µM | HOP-62 > 100 µM | RXF 393 > 100 µM | SK-OV-3 > 100 µM | SF-268 > 100 µM | NCI-H460 > 100 µM | HL-60 > 100 µM | LXFL 529 > 100 µM | TK-10 > 100 µM | U-251 > 100 µM | M19-MEL > 100 µM | DMS-273 > 100 µM | OVCAR-3 > 100 µM | K562 > 100 µM | M14 > 100 µM | RPMI-8226 > 100 µM | SF-539 > 100 µM | SNB-78 > 100 µM | UACC-257 > 100 µM | HT-29 > 100 µM

COc1ccc(CSc2nc3ccccc3nc2-c2cccs2)cc1
inactive: SNB-75 > 100 µM | SK-MEL-28 > 100 µM | EKVX > 100 µM | SF-295 > 100 µM | 786-0 > 100 µM | ACHN > 100 µM | DMS-114 76 µM | NCI-H23 > 100 µM | OVCAR-4 > 100 µM | XF498 > 100 µM | HCT-116 > 100 µM | COLO 205 > 100 µM | CCRF-CEM 15.2 µM | SN12C > 100 µM | SNB-19 > 100 µM | Malme-3M > 100 µM | UO-31 > 100 µM | HOP-92 > 100 µM | A549 > 100 µM | MOLT-4 56.2 µM | HOP-18 > 100 µM | SK-OV-3 > 100 µM | SF-268 > 100 µM | HL-60 26.4 µM | U-251 > 100 µM | DMS-273 > 100 µM | OVCAR-3 > 100 µM | K562 30.7 µM | M14 > 100 µM | RPMI-8226 > 100 µM | SF-539 > 100 µM | SNB-78 > 100 µM | UACC-257 98.4 µM | OVCAR-8 > 100 µM | HT-29 > 100 µM
